Patent US6566550B2, “Substituted aromatic ethers as inhibitors of glycine transport” (Pfizer Inc, priority 2001, dated 2003)

Key:
[1] = test system: NMDA receptor; conditions: effect blocked by a specific NMDA-site antagonist and a glycine-site antagonist; cited from earlier work

| Structure (SMILES) | melting point [°C] | post synaptic current driven by the NMDA receptor [1] |
| --- | --- | --- |
| CN(CCC(Oc1ccc(Oc2cccc3c2CCCC3)cc1)c1ccc(F)cc1)CC(=O)O (stereo not drawn) | 60 to 61 |  |
| COc1ccc(Oc2ccc(OC(CCN(C)CC(=O)O)c3ccccc3)cc2OC)cc1 (stereo not drawn) | 60.1 |  |
| COc1cc(OC(CCN(C)CC(=O)O)c2ccccc2)ccc1Oc1ccccc1 (stereo not drawn) | 77.5 |  |
| COc1cc(OC(CCN(C)CC(=O)O)c2ccc(F)cc2)ccc1Oc1ccccc1 (stereo not drawn) | 139.5 |  |
| Cc1ccc(Oc2ccc(OC(CCN(C)CC(=O)O)c3ccc(F)cc3)c(Cl)c2)cc1 (stereo not drawn) | 129.3 |  |
| COc1cccc(Oc2cc(OC(CCN(C)CC(=O)O)c3ccc(F)cc3)ccc2C)c1 (stereo not drawn) | 55 to 57 |  |
| COc1ccc(Oc2cc(OC(CCN(C)CC(=O)O)c3ccc(F)cc3)ccc2C)cc1 (stereo not drawn) | 63 to 65 |  |
| Cc1ccc(OC(CCN(C)CC(=O)O)c2ccc(F)cc2)cc1Oc1ccc2c(c1)OCO2 (stereo not drawn) | 185 to 188 |  |
| CN(CCC(Oc1ccc(-c2ccccc2)cc1)c1ccc(F)cc1)CC(=O)O (stereo not drawn) [NFPS] |  | increased the post synaptic current driven by the NMDA receptor |
